This note sets out measurements from patent US20250388574A1, “HETEROCYCLIC COMPOUNDS AS TRIGGERING RECEPTOR EXPRESSED ON MYELOID CELLS 2 AGONISTS AND METHODS OF USE” (AMGEN INC., priority 2020, published 2025).

The assay deals with hTREM2 (Homo sapiens, UniProt Q9NZC2). Nature of the assay: Phospho-Syk AlphaScreen/AlphaLISA assay in TREM2 and DAP12 overexpressing HEK293 cells (Example A1). In kind it is cell-based. The settings on record: HEK293 cells; for EC50: read-out: hTREM2 EC50. Details: expressed in transfected cells. The method, then: Pharmacological measurements of TREM2 signaling through DAP12 were made with TREM2 and DAP12 overexpressing HEK293 cells stable cell lines that had been single-cell cloned (“TREM2/DAP12-HEK”). The readout of the TREM2 signaling utilized Perkin Elmer AlphaScreen/AlphaLISA technology monitoring the phosphorylation levels of the Syk kinase. TREM2/DAP12-HEK cell lines were cultured in DMEM-F12 (Corning 10-092-CM) supplemented with 1× Penicillin/Streptomycin (Corning 30-002-CI), 1× GlutaMAX (Gibco 35050-061), and 10% Fetal Bovine Serum (Life Technologies 10099) referred to as “HEK Culture Medium”. Suspensions of TREM2/DAP12-HEK cells were prepared in HEK Culture Medium and dispensed into 384-well poly-D-lysine coated microplates (Corning 354661) at a density of 20,000 cells/well using a Multidrop Combi peristaltic microplate dispenser (Thermo), 25 uL volume of cell suspension/well. Plates containing cells were then incubated for 20 hours in a humidified cell culture incubator at 37° C. with 5% CO2 (Thermo). […] Assay Buffer contained diluted test articles (in 1% final DMSO concentration for compounds) or 100 nM anti-human/mouse TREM2 antibody (R&D Systems MAB17291) as a positive control, 100 nM or rat IgG2B isotype Ab as a negative control (R&D Systems MAB0061). Incubated the plates with test articles and controls for 45 minutes at room temperature and then aspirated/removed the medium from each well of the plates. Used a Multidrop Combi peristaltic liquid handler (Thermo) to dispense 15 uL/well of “Cell Lysis Immunoassay Buffer”. The Cell Lysis Immunoassay Buffer contained M-PER Mammalian Protein Extraction Reagent (Pierce/ThermoFisher 78505), 1× Halt Phosphatase Inhibitor Cocktail (ThermoFisher #78427), 0.1875 nM anti-phospho-Syk ([…]/526) ([…]) rabbit mAb (Cell Signaling Technologies catalog #2710), and 1.5 nM biotinylated Mouse anti-human Syk (4D10) antibody (BD Biosciences, catalog #624008). Incubated plates for 1 hour at room temperature after the addition of the Cell Lysis Immunoassay Buffer. Used the Multidrop Combi liquid handler to dispense 15 μL of AlphaScreen Acceptor Bead Solution containing 7.5 μg/mL anti-rabbit IgG (Fc specific) AlphaLISA Acceptor Beads (Perkin Elmer A[…]) in 1× Immunoassay buffer (Perkin Elmer A[…]) to each well of the microplates. Incubated plates for 2 hours at room temperature. Following the incubation with the AlphaLISA Acceptor Bead Solution, used a Multidrop Combi liquid handler (Thermo) to dispense 15 μL of AlphaScreen Donor Bead Solution containing 30 μg/mL of AlphaScreen Streptavidin Donor beads (Perkin Elmer 6760002B) in 1× Immunoassay buffer (Perkin Elmer A[…]) to each well of the microplates. Incubated microplates for 2 hours protected from light sources as the AlphaScreen reagents are light sensitive. Once the final incubation was completed, acquired AlphaScreen signal from the donor and acceptor beads using an Envision high throughput multi-modal microplate reader (Perkin Elmer) calibrated to the plate type with the AlphaScreen mirror and filter-set in 384-well mode, 680 nanometer excitation wavelength. The total measurement time per well was 550 milliseconds with a 180 millisecond excitation time. After reading the AlphaScreen signal for each well of the microplates, on a plate-by-plate basis, each raw test article well value (x) was normalized to a Percent of Control (“POC”) value using the following formula: […] Each plate contained 12 of each type of control wells that were used to generate the mean values. For concentration response curve analysis with test articles tested at various concentrations, the % of activation values were analyzed with 4 Parameter Logistic or Sigmoidal Dose-Response Models using GeneData Screener (GeneData, AG) or GraphPad Prism 7 (Graphpad Software, Inc.). […] This assay may be used to test any of the compounds described herein to assess and characterize a compound's ability to act as an agonist of TREM2.
Sequence of hTREM2 (Q9NZC2 19-230): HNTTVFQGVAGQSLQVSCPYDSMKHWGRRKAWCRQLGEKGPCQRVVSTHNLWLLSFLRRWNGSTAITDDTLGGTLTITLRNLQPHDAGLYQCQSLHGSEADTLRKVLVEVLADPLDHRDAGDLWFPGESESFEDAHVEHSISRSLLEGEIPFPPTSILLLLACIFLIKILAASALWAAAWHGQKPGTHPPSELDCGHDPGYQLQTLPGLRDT
Sequence of hTREM2 (O43914 22-113 partner): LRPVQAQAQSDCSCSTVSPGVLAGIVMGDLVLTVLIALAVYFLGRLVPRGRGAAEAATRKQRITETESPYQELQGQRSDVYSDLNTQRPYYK

For `Cc1nc2cc(N3CCO[C@H](c4ccnc(OCC(F)(F)F)c4)C3)nc(-c3ccc(Cl)cc3F)c2c(=O)n1C` (single isomer, unassigned) [Example 95], the Emax result is “++++ (Emax>300)” and the EC50 is 50 to 500 nM.
On to `Cc1nc2cc(N3CCO[C@@H](c4ccnc(OCC(F)(F)F)c4)C3)nc(-c3ccc(Cl)cc3F)c2c(=O)n1C` (single isomer, unassigned) [Example 96], for which the Emax entry is on record as “++++ (Emax>300)” and the EC50 was 500 to 3000 nM.
Turning to `Cc1nc2cc(N3CCO[C@H](c4cccc(OC(F)(F)F)c4)C3)nc(-c3ccc(Cl)cc3F)c2c(=O)n1C` (single isomer, unassigned) [Example 97], the Emax entry is given as “++++ (Emax>300)” and the EC50 fell in the range of 500 to 3000 nM.
As to `Cc1nc2cc(N3CCO[C@@H](c4cccc(OC(F)(F)F)c4)C3)nc(-c3ccc(Cl)cc3F)c2c(=O)n1C` (single isomer, unassigned) [Example 98], the Emax entry was “+++ (Emax>200 and ≤300)”; the EC50 lay in the range of 3000 to 100000 nM.
`Cc1nc2cc(N3CCC[C@@H](c4cnn(C)c4)C3)nc(-c3ccc(Cl)cc3F)c2c(=O)n1C` (single isomer, unassigned) [Example 99]: the Emax entry is listed as “++++ (Emax>300)” and the EC50 is 50 to 500 nM.
As to `Cc1nc2cc(N3CCC[C@H](c4cnn(C)c4)C3)nc(-c3ccc(Cl)cc3F)c2c(=O)n1C` (single isomer, unassigned) [Example 100], the Emax entry is “+++ (Emax>200 and ≤300)”; the EC50 was 50 to 500 nM.
In the case of `Cc1nc2cc(N3CCC[C@@H](c4cn[nH]c4)C3)nc(-c3ccc(Cl)cc3F)c2c(=O)n1C` (single isomer, unassigned) [Example 107], the Emax entry is on record as “++++ (Emax>300)” and the EC50 was < 50 nM.
`Cc1nc2cc(N3CCC[C@H](c4cn[nH]c4)C3)nc(-c3ccc(Cl)cc3F)c2c(=O)n1C` (single isomer, unassigned) [Example 108]: the Emax entry is “++++ (Emax>300)” and the EC50 lay in the range of 50 to 500 nM.
As for `Cc1noc([C@@H]2CCCN(c3cc4nc(C)n(C)c(=O)c4c(-c4ccc(Cl)cc4F)n3)C2)n1` (single isomer, unassigned) [Example 111], the Emax entry is recorded as “++++ (Emax>300)” and the EC50 lay in the range of 50 to 500 nM.
For `Cc1noc([C@H]2CCCN(c3cc4nc(C)n(C)c(=O)c4c(-c4ccc(Cl)cc4F)n3)C2)n1` (single isomer, unassigned) [Example 112], the Emax result is “+++ (Emax>200 and ≤300)”; the EC50 is 3000 to 100000 nM.
Consider `Cc1nc2cc(N3CCC[C@@H](c4ccncc4)C3)nc(-c3ccc(Cl)cc3F)c2c(=O)n1C` (single isomer, unassigned) [Example 113], for which the Emax entry was “++++ (Emax>300)” and the concentration for a half-maximal effect (EC50) lay in the range of 50 to 500 nM.
For the molecule `Cc1nc2cc(N3CCC[C@H](c4ccncc4)C3)nc(-c3ccc(Cl)cc3F)c2c(=O)n1C` (single isomer, unassigned) [Example 114], the Emax result was “+++ (Emax>200 and ≤300)”; the EC50 is 50 to 500 nM.
In the case of `Cc1nc2cc(N3CCC(F)(F)[C@H](c4cnn(C)c4)C3)nc(-c3ccc(Cl)cc3F)c2c(=O)n1C` (single isomer, unassigned) [Example 117], the Emax result is “+++ (Emax>200 and ≤300)”; the EC50 was < 50 nM.
Take `Cc1nc2cc(N3CCC(F)(F)[C@@H](c4cnn(C)c4)C3)nc(-c3ccc(Cl)cc3F)c2c(=O)n1C` (single isomer, unassigned) [Example 118]: the Emax result is “+++ (Emax>200 and ≤300)”; the EC50 fell in the range of 50 to 500 nM.
Regarding `Cc1ccc([C@H]2CN(c3cc4nc(C)n(C)c(=O)c4c(-c4ccc(Cl)cc4F)n3)CCO2)cn1` (single isomer, unassigned) [Example 139], the Emax entry is recorded as “++++ (Emax>300)” and the concentration for a half-maximal effect (EC50) lay within 50 to 500 nM.
Consider `Cc1ccc([C@@H]2CN(c3cc4nc(C)n(C)c(=O)c4c(-c4ccc(Cl)cc4F)n3)CCO2)cn1` (single isomer, unassigned) [Example 140], for which the Emax entry was “++++ (Emax>300)” and the EC50 is 50 to 500 nM.
For the molecule `Cc1nc2cc([C@H]3CCO[C@@H](c4cnn(C)c4)C3)nc(-c3ccc(Cl)cc3F)c2c(=O)n1C` (single isomer, unassigned) [Example 162], the Emax result is “+++ (Emax>200 and ≤300)”; the EC50 was < 50 nM.
As for `Cc1nc2cc([C@@H]3CCO[C@H](c4cnn(C)c4)C3)nc(-c3ccc(Cl)cc3F)c2c(=O)n1C` (single isomer, unassigned) [Example 163], the Emax entry was “+++ (Emax>200 and ≤300)”; the EC50 was 3000 to 100000 nM.
`Cc1nc2cc([C@H]3CCO[C@@H](c4cnn(C5CC5)c4)C3)nc(-c3ccc(Cl)cc3F)c2c(=O)n1C` (single isomer, unassigned) [Example 165]: the Emax entry was “+++ (Emax>200 and ≤300)”; the EC50 is < 50 nM.
For `Cc1nc2cc([C@@H]3CCO[C@H](c4cnn(C5CC5)c4)C3)nc(-c3ccc(Cl)cc3F)c2c(=O)n1C` (single isomer, unassigned) [Example 166], the Emax result was “+++ (Emax>200 and ≤300)”; the EC50 fell in the range of 500 to 3000 nM.
On to `Cc1cc([C@H]2C[C@@H](c3cc4nc(C)n(C)c(=O)c4c(-c4ccc(Cl)cc4F)n3)CCO2)ccn1` (single isomer, unassigned) [Example 169], for which the Emax entry was “+++ (Emax>200 and ≤300)”; the EC50 is < 50 nM.
Consider `Cc1cc([C@@H]2C[C@H](c3cc4nc(C)n(C)c(=O)c4c(-c4ccc(Cl)cc4F)n3)CCO2)ccn1` (single isomer, unassigned) [Example 170], for which the Emax result is “+++ (Emax>200 and ≤300)”; the EC50 lay within 500 to 3000 nM.
On to `COc1cc([C@H]2C[C@@H](c3cc4nc(C)n(C)c(=O)c4c(-c4ccc(Cl)cc4F)n3)CCO2)ccn1` (single isomer, unassigned) [Example 172], for which the Emax result is listed as “++++ (Emax>300)” and the EC50 was < 50 nM.
Take `COc1cc([C@@H]2C[C@H](c3cc4nc(C)n(C)c(=O)c4c(-c4ccc(Cl)cc4F)n3)CCO2)ccn1` (single isomer, unassigned) [Example 173]: the Emax entry was “+++ (Emax>200 and ≤300)”; the EC50 was 500 to 3000 nM.
As for `COc1cc([C@H]2C[C@H](c3cc4nc(C)n(C)c(=O)c4c(-c4ccc(Cl)cc4F)n3)CCO2)ccn1` (single isomer, unassigned) [Example 174], the Emax entry is “++++ (Emax>300)” and the EC50 was 50 to 500 nM.
For `COc1cc([C@@H]2C[C@@H](c3cc4nc(C)n(C)c(=O)c4c(-c4ccc(Cl)cc4F)n3)CCO2)ccn1` (single isomer, unassigned) [Example 175], the Emax result is “+++ (Emax>200 and ≤300)”; the 50% effective concentration (EC50) lay within 50 to 500 nM.
In the case of `Cc1nc2cc([C@H]3CCO[C@@H](c4cccnc4)C3)nc(-c3ccc(Cl)cc3F)c2c(=O)n1C` (single isomer, unassigned) [Example 177], the Emax entry is on record as “++++ (Emax>300)” and the EC50 fell in the range of 50 to 500 nM.
Consider `Cc1nc2cc([C@@H]3CCO[C@H](c4cccnc4)C3)nc(-c3ccc(Cl)cc3F)c2c(=O)n1C` (single isomer, unassigned) [Example 178], for which the Emax entry is “++++ (Emax>300)” and the 50% effective concentration (EC50) lay in the range of 500 to 3000 nM.
Take `Cc1nc2cc(N3CCO[C@@H](c4cnn(C)c4)C3)nc(-c3ccc(Cl)cc3F)c2c(=O)n1C` [Example 1, 5-(4-chloro-2-fluorophenyl)-2,3-dimethyl-7-((2S)-2-(1-methyl-1H-pyrazol-4-yl)-4-morpholinyl)pyrido[4,3-d]pyrimidin-4(3H)-one]: the Emax entry is “+++ (Emax>200 and ≤300)”; the concentration for a half-maximal effect (EC50) was 50 to 500 nM.

Usually EC50 stands for the midpoint of the concentration-response curve.
